Assay results published in patent US20240101570A1 (AMGEN INC., priority 2020, published 2024).

Key:
[1] = tested on: HCT116 MTAP null cells; assay: HCT116 MTAP null cell proliferation / viability (CellTiter-Glo, 6 days); type: cell-based; conditions: HCT116-MTAP null, 144 h, HCT116 MTAP null cells, 6 days, CellTiter-Glo; read-out: HCT-116 MTAP null IC50
Method in brief: (§1)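 CellTiter-Glo luminescence, 6-day exposure, RPMI 1640 + 10% FBS. Dosing: 1:3 series (8-9 pts, top 1 or 10 μM) or 1:2 series (22 pts, top 10 or 50 μM), DMSO control. IC50 = 50% of control via curve fit.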

[2] = tested on: HCT116 WT cells; assay: HCT116 WT cell proliferation / viability (CellTiter-Glo, 6 days); type: cell-based; conditions: Homo sapiens, HCT-116, 144 h, HCT116 WT cells, 6 days, CellTiter-Glo; read-out: HCT-116 WT IC50
Method in brief: as §1

CC(C)N(Cc1ccc(C(F)(F)F)cn1)C(=O)c1ccc2nc(N)c3ncncc3c2c1 [Example 755, 5-amino-N-(2-propanyl)-N-((5-(trifluoromethyl)-2-pyridinyl)methyl)pyrimido[4,5-c]quinoline-9-carboxamide]
IC50 [1]: 892 nM
IC50 [2]: 6420 nM

CC(C)N(Cc1ccc(C(F)(F)F)cn1)C(=O)c1cc2c(cn1)nc(N)c1ccncc12 [Example 756, 5-amino-N-(2-propanyl)-N-((5-(trifluoromethyl)-2-pyridinyl)methyl)pyrido[4,3-c][1,7]naphthyridine-9-carboxamide]
IC50 [1]: 49 nM
IC50 [2]: 744 nM

Cn1cc(N(Cc2ccc(C(F)(F)F)cn2)C(=O)c2ccc3nc(N)c4cnn(C)c4c3c2)cn1 [Example 757, 4-amino-1-methyl-N-(1-methyl-1H-pyrazol-4-yl)-N-((5-(trifluoromethyl)-2-pyridinyl)methyl)-1H-pyrazolo[4,3-c]quinoline-8-carboxamide]
IC50 [1]: 26 nM
IC50 [2]: 1320 nM

CCOc1ccc(CN(C(=O)c2ccc3nc(N)c4c(cnn4C)c3c2)[C@H](C)c2ncccn2)nn1 [Example 758, 4-amino-N-((6-ethoxy-3-pyridazinyl)methyl)-3-methyl-N-((1R)-1-(2-pyrimidinyl)ethyl)-3H-pyrazolo[3,4-c]quinoline-8-carboxamide]
IC50 [1]: 37 nM
IC50 [2]: 658 nM

CCN(C(=O)c1ccc2nc(N)c3c(c2c1)COC3)C(C)(C)c1ccc(C(F)(F)F)cc1 [Example 759, 4-amino-N-ethyl-N-(2-(4-(trifluoromethyl)phenyl)-2-propanyl)-1,3-dihydrofuro[3,4-c]quinoline-8-carboxamide]
IC50 [1]: 6730 nM
IC50 [2]: 11800 nM

CC(C)N(Cc1ccc(C(F)(F)F)cn1)C(=O)c1cc2c(cn1)nc(N)c1ncncc12 [Example 760, 5-amino-N-(2-propanyl)-N-((5-(trifluoromethyl)-2-pyridinyl)methyl)pyrimido[4,5-c][1,7]naphthyridine-9-carboxamide]
IC50 [1]: 743 nM
IC50 [2]: 6100 nM

CC[C@H](c1ccc(C(F)(F)F)cn1)N(CC)C(=O)c1cc2c3c(c(N)nc2cn1)COC3 [Example 761, 4-amino-N-ethyl-N-((1R)-1-(5-(trifluoromethyl)-2-pyridinyl)propyl)-1,3-dihydrofuro[3,4-c][1,7]naphthyridine-8-carboxamide]
IC50 [1]: 305 nM
IC50 [2]: 13600 nM

CCN(C(=O)c1cc2c3c(c(N)nc2cc1F)COC3)[C@H](C)c1ccc(C(F)(F)F)cn1 [Example 762, 4-amino-N-ethyl-7-fluoro-N-((1R)-1-(5-(trifluoromethyl)-2-pyridinyl)ethyl)-1,3-dihydrofuro[3,4-c]quinoline-8-carboxamide]
IC50 [1]: 26 nM
IC50 [2]: 621 nM

CCN(C(=O)c1cc2c3c(c(N)nc2cn1)COC3)[C@H](C)c1ccc(C(F)(F)F)nn1 [Example 763, 4-amino-N-ethyl-N-((1R)-1-(6-(trifluoromethyl)-3-pyridazinyl)ethyl)-1,3-dihydrofuro[3,4-c][1,7]naphthyridine-8-carboxamide]
IC50 [1]: 113 nM
IC50 [2]: 4810 nM

CCOc1ccc(CN(CC2CC2)C(=O)c2cc3c(cc2F)nc(N)c2c3cnn2C)nn1 [Example 765, 4-amino-N-(cyclopropylmethyl)-N-((6-ethoxy-3-pyridazinyl)methyl)-7-fluoro-3-methyl-3H-pyrazolo[3,4-c]quinoline-8-carboxamide]
IC50 [1]: 49 nM
IC50 [2]: 1980 nM

CCOc1ccc(CN(CC2CC2)C(=O)c2ccc3nc(N)c4c(c3c2)CO[C@@H]4C)nn1 [Example 766, (3R)-4-amino-N-(cyclopropylmethyl)-N-((6-ethoxy-3-pyridazinyl)methyl)-3-methyl-1,3-dihydrofuro[3,4-c]quinoline-8-carboxamide]
IC50 [1]: 61 nM
IC50 [2]: 1910 nM

CCN(C(=O)c1cc2c3c(c(N)nc2cn1)COC3)[C@@H](c1ccc(C(F)(F)F)nn1)C1CC1 [Example 767, 4-amino-N-((R)-cyclopropyl(6-(trifluoromethyl)-3-pyridazinyl)methyl)-N-ethyl-1,3-dihydrofuro[3,4-c][1,7]naphthyridine-8-carboxamide]
IC50 [1]: 2270 nM
IC50 [2]: > 50000 nM

C[C@@H](NC(=O)c1ccc2nc(N)c3c(c2c1)CO[C@@H]3C)c1ccc(C(F)(F)F)cn1 [Example 768, (3R)-4-amino-3-methyl-N-((1R)-1-(5-(trifluoromethyl)-2-pyridinyl)ethyl)-1,3-dihydrofuro[3,4-c]quinoline-8-carboxamide]
IC50 [1]: 4230 nM
IC50 [2]: > 50000 nM

Cc1ccc(CN(C)C(=O)c2cc3c(cc2F)nc(N)c2cnn(C)c23)nc1 [Example 769, 4-amino-7-fluoro-N,1-dimethyl-N-((5-methyl-2-pyridinyl)methyl)-1H-pyrazolo[4,3-c]quinoline-8-carboxamide]
IC50 [1]: 115 nM
IC50 [2]: 7500 nM

CN(Cc1ccc(F)cn1)C(=O)c1cc2c(cc1F)nc(N)c1cnn(C)c12 [Example 770, 4-amino-7-fluoro-N-((5-fluoro-2-pyridinyl)methyl)-N,1-dimethyl-1H-pyrazolo[4,3-c]quinoline-8-carboxamide]
IC50 [1]: 253 nM
IC50 [2]: 19400 nM

CN(Cc1ccc(F)nc1F)C(=O)c1cc2c(cc1F)nc(N)c1cnn(C)c12 [Example 771, 4-amino-N-((2,6-difluoro-3-pyridinyl)methyl)-7-fluoro-N,1-dimethyl-1H-pyrazolo[4,3-c]quinoline-8-carboxamide]
IC50 [1]: 395 nM
IC50 [2]: 31100 nM

CCN(C(=O)c1cc2c3c(c(N)nc2cn1)COC3)[C@H](C)c1ccc(C(F)F)cn1 [Example 773, 4-amino-N-((1R)-1-(5-(difluoromethyl)-2-pyridinyl)ethyl)-N-ethyl-1,3-dihydrofuro[3,4-c][1,7]naphthyridine-8-carboxamide]
IC50 [1]: 106 nM
IC50 [2]: 2630 nM

C[C@H](c1cnc(C(F)(F)F)cn1)N(C)C(=O)c1ccc2nc(N)c3c(c2c1)COC3 [Example 774, 4-amino-N-methyl-N-((1R)-1-(5-(trifluoromethyl)-2-pyrazinyl)ethyl)-1,3-dihydrofuro[3,4-c]quinoline-8-carboxamide]
IC50 [1]: 736 nM
IC50 [2]: 40600 nM

CCN(C(=O)c1ccc2nc(N)c3c(c2c1)CO[C@@H]3C)[C@H](C)c1ccc(C(F)F)cn1 [Example 775, (3R)-4-amino-N-((1R)-1-(5-(difluoromethyl)-2-pyridinyl)ethyl)-N-ethyl-3-methyl-1,3-dihydrofuro[3,4-c]quinoline-8-carboxamide]
IC50 [1]: 33 nM
IC50 [2]: 2680 nM

C[C@H](c1cnc(C(F)(F)F)cn1)N(C)C(=O)c1ccc2nc(N)c3cnn(C)c3c2c1 [Example 776, 4-amino-N,1-dimethyl-N-((1R)-1-(5-(trifluoromethyl)-2-pyrazinyl)ethyl)-1H-pyrazolo[4,3-c]quinoline-8-carboxamide]
IC50 [1]: 150 nM
IC50 [2]: > 10000 nM

CCN(C(=O)c1ccc2nc(N)c3c(c2c1)CO[C@@H]3C)[C@H](C)c1ccc(C(F)(F)F)cn1 [Example 777, (3R)-4-amino-N-ethyl-3-methyl-N-((1R)-1-(5-(trifluoromethyl)-2-pyridinyl)ethyl)-1,3-dihydrofuro[3,4-c]quinoline-8-carboxamide]
IC50 [1]: 25 nM
IC50 [2]: 1380 nM
